Results from US20230372274A1, “COMPOSITIONS AND METHODS FOR PERIORBITAL ADMINISTRATION OF EP2 RECEPTOR AGONISTS” (JENIVISION INC., priority 2021, published 2023).

Assays:
[1] = target: EP4 receptors (Homo sapiens, UniProt P35408); conditions: Woodward et al., 2019; cited from earlier work
[2] = target: FP receptors (Homo sapiens, UniProt P43088); conditions: Woodward et al., 2019; cited from earlier work
[3] = target: IP receptors (Homo sapiens, UniProt P43119); conditions: Woodward et al., 2019; cited from earlier work
Chain of IP receptors (P43119 whole entry): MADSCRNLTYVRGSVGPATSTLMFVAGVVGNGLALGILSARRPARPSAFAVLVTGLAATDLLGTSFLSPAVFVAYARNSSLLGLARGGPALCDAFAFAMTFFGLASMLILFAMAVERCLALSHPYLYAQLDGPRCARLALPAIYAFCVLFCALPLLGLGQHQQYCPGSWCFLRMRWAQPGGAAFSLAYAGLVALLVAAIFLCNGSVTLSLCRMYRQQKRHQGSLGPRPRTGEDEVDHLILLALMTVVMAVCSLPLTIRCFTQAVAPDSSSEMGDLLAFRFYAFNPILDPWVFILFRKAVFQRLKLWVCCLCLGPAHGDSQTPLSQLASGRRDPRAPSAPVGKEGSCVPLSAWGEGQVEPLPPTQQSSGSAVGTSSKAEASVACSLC

[4] = target: T1, EP3 receptors (Homo sapiens, UniProt P43115); conditions: Woodward et al., 2019; cited from earlier work
T1 sequence (P43115 1-390): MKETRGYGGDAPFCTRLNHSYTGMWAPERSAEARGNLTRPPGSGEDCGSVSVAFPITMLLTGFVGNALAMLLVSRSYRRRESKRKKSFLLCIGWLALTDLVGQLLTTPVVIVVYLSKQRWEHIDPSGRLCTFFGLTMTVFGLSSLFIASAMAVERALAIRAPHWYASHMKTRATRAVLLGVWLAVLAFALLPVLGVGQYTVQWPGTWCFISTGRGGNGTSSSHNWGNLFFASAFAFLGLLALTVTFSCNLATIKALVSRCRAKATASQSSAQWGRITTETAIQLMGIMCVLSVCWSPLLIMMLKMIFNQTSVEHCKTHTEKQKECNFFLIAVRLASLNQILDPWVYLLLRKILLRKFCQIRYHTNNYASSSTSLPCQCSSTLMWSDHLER

[5] = target: T2, TP receptors (Homo sapiens, UniProt P21731); conditions: Woodward et al., 2019; cited from earlier work
T2 sequence (P21731 1-343): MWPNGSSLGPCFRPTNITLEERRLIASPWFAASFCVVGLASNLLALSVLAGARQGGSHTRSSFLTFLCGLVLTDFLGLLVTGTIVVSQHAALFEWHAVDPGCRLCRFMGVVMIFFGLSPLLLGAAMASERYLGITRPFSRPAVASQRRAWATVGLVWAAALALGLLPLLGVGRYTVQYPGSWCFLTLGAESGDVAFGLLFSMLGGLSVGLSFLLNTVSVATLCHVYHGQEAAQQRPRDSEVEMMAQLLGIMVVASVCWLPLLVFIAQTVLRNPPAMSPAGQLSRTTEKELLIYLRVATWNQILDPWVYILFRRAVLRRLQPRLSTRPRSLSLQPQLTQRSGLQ

[6] = target: T3, DP receptors (Homo sapiens, UniProt Q13258); conditions: Woodward et al., 2019; cited from earlier work
T3 sequence (Q13258 1-359): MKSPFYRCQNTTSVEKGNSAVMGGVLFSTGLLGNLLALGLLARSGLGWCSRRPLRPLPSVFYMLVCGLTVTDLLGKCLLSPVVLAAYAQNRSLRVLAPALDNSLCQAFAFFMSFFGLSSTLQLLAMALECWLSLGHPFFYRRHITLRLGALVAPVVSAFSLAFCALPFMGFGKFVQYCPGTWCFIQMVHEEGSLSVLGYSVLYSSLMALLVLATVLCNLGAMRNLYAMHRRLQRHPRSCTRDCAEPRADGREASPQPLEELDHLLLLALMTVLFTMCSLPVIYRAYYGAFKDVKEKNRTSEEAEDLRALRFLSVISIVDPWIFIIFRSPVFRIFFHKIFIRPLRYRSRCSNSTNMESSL

[7] = target: T4, EP1 receptors (Homo sapiens, UniProt P34995); conditions: Woodward et al., 2019; cited from earlier work
T4 sequence (P34995 1-402): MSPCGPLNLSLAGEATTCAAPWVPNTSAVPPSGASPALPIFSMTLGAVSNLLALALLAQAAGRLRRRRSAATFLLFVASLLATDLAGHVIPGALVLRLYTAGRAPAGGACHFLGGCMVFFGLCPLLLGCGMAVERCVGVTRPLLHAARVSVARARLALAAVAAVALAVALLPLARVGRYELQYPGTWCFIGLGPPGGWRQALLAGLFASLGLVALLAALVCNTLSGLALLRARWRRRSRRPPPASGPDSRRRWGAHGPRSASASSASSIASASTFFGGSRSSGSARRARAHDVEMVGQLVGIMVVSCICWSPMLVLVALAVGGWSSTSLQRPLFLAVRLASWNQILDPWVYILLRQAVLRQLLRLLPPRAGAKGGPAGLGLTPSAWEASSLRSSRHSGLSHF

[8] = target: T5, human recombinant EP2 receptors (Homo sapiens, UniProt P43116); conditions: cited from earlier work
T5 construct: expressed in transfected cells; host or cells: HEK cells
T5 sequence (P43116 whole entry): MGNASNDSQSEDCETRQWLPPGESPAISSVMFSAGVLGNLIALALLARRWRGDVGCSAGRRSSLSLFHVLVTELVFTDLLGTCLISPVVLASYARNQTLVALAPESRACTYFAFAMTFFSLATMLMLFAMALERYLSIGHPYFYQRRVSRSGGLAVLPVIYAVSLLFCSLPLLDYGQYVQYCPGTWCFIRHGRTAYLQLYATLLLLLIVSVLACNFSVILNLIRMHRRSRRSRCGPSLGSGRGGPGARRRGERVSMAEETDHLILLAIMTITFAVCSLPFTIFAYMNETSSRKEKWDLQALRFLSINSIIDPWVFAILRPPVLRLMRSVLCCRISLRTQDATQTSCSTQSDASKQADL

[9] = tested on: human subjects; test: IOP in human subjects after once daily periorbital ointment (Example 6); assay type: in vivo
Protocol: (§1) Human subjects were treated with JV-GL1 ointment (20% medium-chain triglycerides and 80% petrolatum (v/v)) via periorbital skin administration to both eyes once daily. The human subjects were monitored daily for 9 days, with TOP measurements taken at 0 hours, 0.5 hours, 2 hours, and 8 hours from administration of the dose on Days 0, 1, and 9. IOP measurements were taken 0 hours from administration of the dose on Days 4 and 7.

[10] = tested on: ocular normotensive cynomolgus monkeys; test: Intraocular pressure after single periorbital dose (Example 1); assay type: in vivo, cynomolgus monkey; conditions: single periorbital dose of 10, 20 and 30 micrograms (similar extent), right eye (OD)
Source text: FIG. 2 compares the effect of 9 micrograms bimatoprost (30 pi of 0.03% Lumigan® ophthalmic solution) topical ocular surface administration once daily per eye for 4 days with single dose periorbital skin administration of [(3′-fluoro-4-fluorobiphenyl-3-carbonyl) amino] phenoxyacetic acid isopropyl ester ointment at 10 micrograms, 20 micrograms or 30 micrograms [(3′-fluoro-4-fluorobiphenyl-3-carbonyl) amino] phenoxyacetic acid isopropyl ester on intraocular pressure (TOP) in ocular normotensive Cynomolgus monkeys (Mean±SEM, n=4/group).
(§2) Ocular normotensive cynomolgus monkeys were administered a single dose of JV-GL1 Ointment (20% medium-chain triglycerides and 80% petrolatum (v/v)) to the periorbital skin of the right eye (OD) at JV-GL1 doses of 10 micrograms, 20 micrograms, and 30 micrograms and TOP was measured; Lumigan® eye drops were used as a comparator. […] Compared with baseline, IOP was decreased in the eyes (OD) of animals treated with 10 micrograms, 20 micrograms, and 30 micrograms JVGL-1 to a similar extent (approximately 60%) whereas a much lower decrease occurred for Lumigan® (approximately 30%).

[11] = tested on: monkey; test: Monkey study of periorbital skin administration versus eye drops; assay type: in vivo; conditions: essentially equal doses
[12] = tested on: ocular normotensive cynomolgus monkeys; test: Local observations after low periorbital doses of ointment (0.2 to 5 micrograms/eye); assay type: in vivo, cynomolgus monkey
Protocol: Separately, ocular normotensive cynomolgus monkeys were administered single doses of the ointment at 0.6 micrograms, 2.0 micrograms or 5.0 micrograms per eye.

[13] = tested on: ocular normotensive cynomolgus monkeys; test: Intraocular pressure after once daily periorbital 0.2 μg/eye ointment (Example 2); assay type: in vivo, cynomolgus monkey
Protocol: Animals were unilaterally treated via periorbital skin administration of [(3′-fluoro-4-fluorobiphenyl-3-carbonyl) amino] phenoxyacetic acid isopropyl ester ointment once daily on Days 15-21. The right eye of the control group (Group 2) received ointment vehicle once daily on Days 8-14 and no treatment on Days 15-21. OD=right eye.
Ocular normotensive cynomolgus monkeys (Group 1, n=3) were unilaterally treated via periorbital skin administration of JV-GL1 ointment once daily in an amount of 0.2 μg in the right eye on Days 15-21 of a study, the results of which are shown in FIG. 3. JV-GL1 was administered as an ointment (20% medium-chain triglycerides and 80% petrolatum (v/v)). The animals were untreated on days 8-14 and IOP monitored daily. Group 2 (n=3) was administered vehicle ointment alone on days 8-14, followed by no treatment on days 15-21 of the study.

[14] = tested on: human subjects; test: Tolerability in human subjects during periorbital dosing (Example 6); assay type: in vivo; conditions: Groups 1-4, during the dosing period
Protocol: as §1

[15] = tested on: ocular normotensive cynomolgus monkeys; test: Periorbital skin and pupil observations after single periorbital dose of 10-30 micrograms (Example 1); assay type: in vivo, cynomolgus monkey
Protocol: as §2
The incidence rate of pupil constriction in the three test article groups was 100% after 2-3 hours post-dosing.

[16] = 10, 20, 30 micrograms single dose

Chain of FP receptors (P43088 whole entry): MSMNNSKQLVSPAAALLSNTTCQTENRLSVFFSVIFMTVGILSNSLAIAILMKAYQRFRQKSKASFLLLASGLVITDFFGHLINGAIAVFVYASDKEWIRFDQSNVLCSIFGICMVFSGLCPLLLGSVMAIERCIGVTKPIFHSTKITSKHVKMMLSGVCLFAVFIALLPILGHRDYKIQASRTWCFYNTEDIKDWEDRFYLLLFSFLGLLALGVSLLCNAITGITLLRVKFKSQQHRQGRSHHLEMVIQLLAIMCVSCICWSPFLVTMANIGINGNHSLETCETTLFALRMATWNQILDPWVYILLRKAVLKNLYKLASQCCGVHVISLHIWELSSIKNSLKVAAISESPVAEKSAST
Chain of EP4 receptors (P35408 whole entry): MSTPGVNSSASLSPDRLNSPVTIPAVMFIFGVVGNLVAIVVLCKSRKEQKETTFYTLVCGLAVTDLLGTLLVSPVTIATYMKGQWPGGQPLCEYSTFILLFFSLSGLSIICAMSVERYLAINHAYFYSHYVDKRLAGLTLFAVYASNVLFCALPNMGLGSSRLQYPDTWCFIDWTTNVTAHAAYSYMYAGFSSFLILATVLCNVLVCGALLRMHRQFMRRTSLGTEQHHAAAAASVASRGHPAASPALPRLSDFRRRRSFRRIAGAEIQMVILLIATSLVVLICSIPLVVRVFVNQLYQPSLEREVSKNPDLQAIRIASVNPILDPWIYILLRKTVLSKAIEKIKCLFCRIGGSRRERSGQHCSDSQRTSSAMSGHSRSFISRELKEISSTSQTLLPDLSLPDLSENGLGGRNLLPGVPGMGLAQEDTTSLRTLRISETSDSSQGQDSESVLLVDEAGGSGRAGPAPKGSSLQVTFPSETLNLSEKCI

## O=C(O)COc1cccc(NC(=O)c2cc(-c3cccc(F)c3)ccc2F)c1 [JV-GL1 free acid, 3-[(3′-fluoro-4-fluorobiphenyl-3-carbonyl)amino] phenoxyacetic acid]
[1]
  affinity for EP4 receptors: negligible
[2]
  affinity for FP receptors: negligible
[3]
  affinity for IP receptors: negligible
[4]
  affinity for EP3 receptors: negligible
[5]
  affinity for TP receptors: negligible
[6]
  affinity for DP receptors: negligible
[7]
  affinity for EP1 receptors: negligible
[8]; HEK cells over-expressing human recombinant EP2 receptors, versus PGE2
  maximal elevation of cAMP levels: comparable to that of the endogenous agonist PGE2
[8]; Woodward et al., 2019
  EP2 receptor agonism: potent and full EP2 receptor agonist

## CC(C)OC(=O)COc1cccc(NC(=O)c2cc(-c3cccc(F)c3)ccc2F)c1 [JV-GL1, 3-[(3′-fluoro-4-fluorobiphenyl-3-carbonyl)amino] phenoxyacetic acid isopropyl ester]
[9]; Group 1, 0.30 μg/eye/day over 9 days, 0 hours after dose
  average change in TOP: −6%
[9]; Group 1, 0.30 μg/eye/day over 9 days, 0.5 hours after dose
  average change in TOP: −3%
[9]; Group 1, 0.30 μg/eye/day over 9 days, 2 hours after dose
  average change in TOP: 0%
[9]; Group 1, 0.30 μg/eye/day over 9 days, 8 hours after dose
  average change in TOP: −4%
[9]; Group 2, 0.59 μg/eye/day over 9 days, 0 hours after dose
  average change in TOP: −14%
[9]; Group 2, 0.59 μg/eye/day over 9 days, 0.5 hours after dose
  average change in TOP: −10%
[9]; Group 2, 0.59 μg/eye/day over 9 days, 2 hours after dose
  average change in TOP: −16%
[9]; Group 2, 0.59 μg/eye/day over 9 days, 8 hours after dose
  average change in TOP: −12%
[9]; Group 3, 0.99 μg/eye/day over 9 days, 0 hours after dose
  average change in TOP: −11%
[9]; Group 3, 0.99 μg/eye/day over 9 days, 0.5 hours after dose
  average change in TOP: −16%
[9]; Group 3, 0.99 μg/eye/day over 9 days, 2 hours after dose
  average change in TOP: −16%
[9]; Group 3, 0.99 μg/eye/day over 9 days, 8 hours after dose
  average change in TOP: −15%
[9]; Group 4, 1.92 μg/eye/day over 9 days, 0 hours after dose
  average change in TOP: −19%
[9]; Group 4, 1.92 μg/eye/day over 9 days, 0.5 hours after dose
  average change in TOP: −22%
[9]; Group 4, 1.92 μg/eye/day over 9 days, 2 hours after dose
  average change in TOP: −20%
[9]; Group 4, 1.92 μg/eye/day over 9 days, 8 hours after dose
  average change in TOP: −14%
[9]; Group 5, 3.99 μg/eye/day over 9 days, 0 hours after dose
  average change in TOP: −13%
[9]; Group 5, 3.99 μg/eye/day over 9 days, 0.5 hours after dose
  average change in TOP: −13%
[9]; Group 5, 3.99 μg/eye/day over 9 days, 2 hours after dose
  average change in TOP: −18%
[9]; Group 5, 3.99 μg/eye/day over 9 days, 8 hours after dose
  average change in TOP: −18%
[9]; Groups 1, 2, 3 and 4 (0.30 to 1.92 μg/eye/day)
  dose dependence of TOP reduction: dose-dependent trend in TOP reduction
[10]
  IOP decrease compared with baseline: approximately 60%
[11]
  efficacy of periorbital skin administration versus eye drops: as effective as eye drops
[12]; 0.2 to 5 micrograms/eye, periorbital
  efficacy and local tolerability at lower doses: retained without obvious periorbital skin swelling and hyperemia of the periorbital skin and ocular surface
[12]; eyes treated with either eye drops or ointment
  pupil constriction during the dosing period: persistent pupil constriction was observed
[12]; single doses of ointment at 0.6, 2.0 or 5.0 micrograms per eye
  resolution of skin redness and swelling: disappeared a few hours to overnight after dosing
[13]; 0.2 μg/eye (OD) once daily
  onset of marked decrease in IOP: as early as one day following initiation of treatment
[13]; 0.2 μg/eye (OD) once daily Days 15-21, from a starting point of ˜25 mmHg
  IOP by the end of the study: ~10 mmHg
[14]
  irritation or discomfort associated with AE of mild periorbital erythema: did not report any irritation or discomfort
[15]; [16]
  incidence rate of periorbital skin swelling, dose relation: showed a certain dose dependent relationship
  recovery of periorbital skin redness: completely recovered by Day 2
  resolution of periorbital skin swelling: disappeared by Day 5
[15]; all three groups (10, 20, 30 micrograms), 2-3 hours post-dosing
  incidence rate of periorbital skin redness: 100%
[15]; except a single animal in the high-dose group
  recovery of pupil constriction: recovered by Day 15
[15]; in ointment, periorbital, 10 to 30 micrograms/eye
  local findings at 10 to 30 micrograms/eye: modest pupil constriction, erythema of the ocular surface and periorbital skin, and swelling of the periorbital skin
[15]; three groups (10, 20, 30 micrograms), after 2-3 hours post-dosing
  incidence rate of pupil constriction: 100%
